Data from ChEMBL document CHEMBL1201862, “PubChem BioAssay data set” (2004).
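Interpolation was linear, between the two tested concentrations surrounding the appropriate level; five concentrations were tested over 48 hours in 96-well plates. GI50 = concentration required for 50% inhibition of growth.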 The source made the active and inactive calls. No stated cut-off is given here; in the data, active = GI50 up to about 1.1 µM and inactive = higher.

What was measured:
Assay in all cases: NCI-60 cell line screen, 48 h
RXF 393 = test system: RXF 393
SNB-75 = test system: SNB-75
OVCAR-8 = test system: OVCAR-8
OVCAR-5 = test system: OVCAR-5
COLO 205 = test system: COLO 205
HOP-62 = test system: HOP-62
OVCAR-3 = test system: OVCAR-3
HL-60 = test system: HL-60
UO-31 = test system: UO-31
HT-29 = test system: HT-29
RPMI-8226 = test system: RPMI-8226
LOX IMVI = test system: LOX IMVI
HCC 2998 = test system: HCC 2998
SF-539 = test system: SF-539
U-251 = test system: U-251
KM12 = test system: KM12
SK-OV-3 = test system: SK-OV-3
TK-10 = test system: TK-10

Structure (SMILES)	GI50 (RXF 393)	GI50 (SNB-75)	GI50 (OVCAR-8)	GI50 (OVCAR-5)	GI50 (COLO 205)	GI50 (HOP-62)	GI50 (OVCAR-3)	GI50 (HL-60)	GI50 (UO-31)	GI50 (HT-29)	GI50 (RPMI-8226)	GI50 (LOX IMVI)	GI50 (HCC 2998)	GI50 (SF-539)	GI50 (U-251)	GI50 (KM12)	GI50 (SK-OV-3)	GI50 (TK-10)
COc1ccc(-c2onc(-c3ccc([N+](=O)[O-])cc3)c2C2=NCCCN2)cc1	88.1 µM (inactive)	> 100 µM (inactive)	81.1 µM (inactive)	> 100 µM (inactive)	43.6 µM (inactive)	> 100 µM (inactive)	26.5 µM (inactive)	36.9 µM (inactive)	18.4 µM (inactive)	40.3 µM (inactive)	> 100 µM (inactive)	51.9 µM (inactive)	> 100 µM (inactive)	> 100 µM (inactive)	> 100 µM (inactive)	> 100 µM (inactive)		
O=C(O)Cc1cc(=O)[nH]c2c1/C(=N/O)CCC2	> 100 µM (inactive)		> 100 µM (inactive)	> 100 µM (inactive)			> 100 µM (inactive)	> 100 µM (inactive)	> 100 µM (inactive)	> 100 µM (inactive)	> 100 µM (inactive)		> 100 µM (inactive)	> 100 µM (inactive)	> 100 µM (inactive)	> 100 µM (inactive)	> 100 µM (inactive)	> 100 µM (inactive)
Cc1cc2nc3c(=O)n(C)c(=O)nc-3n(-c3ccc(Cl)cc3)c2cc1C		11.4 µM (inactive)	13.1 µM (inactive)	18.5 µM (inactive)	2.24 µM (inactive)	24.4 µM (inactive)	2.57 µM (inactive)	3.34 µM (inactive)	20 µM (inactive)	3.51 µM (inactive)	6.37 µM (inactive)		3.95 µM (inactive)	11.2 µM (inactive)	9.66 µM (inactive)	16 µM (inactive)	25.6 µM (inactive)	31.9 µM (inactive)
CCOC(=O)c1sc(Nc2cc(Cl)ccc2Cl)nc1C	> 100 µM (inactive)	15.6 µM (inactive)	96.4 µM (inactive)	37.3 µM (inactive)	> 100 µM (inactive)	> 100 µM (inactive)	84.1 µM (inactive)	> 100 µM (inactive)	> 100 µM (inactive)	50.2 µM (inactive)	53.2 µM (inactive)	> 100 µM (inactive)	> 100 µM (inactive)	> 100 µM (inactive)	> 100 µM (inactive)	> 100 µM (inactive)		> 100 µM (inactive)
CCCCCCCCCCNC(=S)OC	33.7 µM (inactive)	27.4 µM (inactive)	48.2 µM (inactive)			> 100 µM (inactive)		16.7 µM (inactive)	15.8 µM (inactive)	34.3 µM (inactive)	13.2 µM (inactive)	15.8 µM (inactive)	43.6 µM (inactive)	64.7 µM (inactive)	33.1 µM (inactive)		> 100 µM (inactive)	98.2 µM (inactive)
Cc1ccc(C)c(N2C(=O)C(=O)C(c3nc4ccccc4o3)/C(=N\NC(=O)c3ccccc3O)C2=O)c1 (stereo unspecified)		5.7 µM (inactive)	19.8 µM (inactive)	58.3 µM (inactive)	24.2 µM (inactive)	24.9 µM (inactive)	16.6 µM (inactive)	< 0.01 µM (active)	16.3 µM (inactive)	32.1 µM (inactive)	37.6 µM (inactive)	32.4 µM (inactive)	67.3 µM (inactive)	19.1 µM (inactive)	24.4 µM (inactive)		87.1 µM (inactive)	44 µM (inactive)
Cc1cc(N(CCC#N)CCC#N)ccc1/C=C1/N=C(c2ccccc2)N(N)C1=O		21.1 µM (inactive)	> 100 µM (inactive)	> 100 µM (inactive)	> 100 µM (inactive)	31.9 µM (inactive)	> 100 µM (inactive)	27 µM (inactive)	> 100 µM (inactive)	> 100 µM (inactive)	> 100 µM (inactive)	49.3 µM (inactive)	> 100 µM (inactive)	60.8 µM (inactive)	63.7 µM (inactive)	> 100 µM (inactive)	> 100 µM (inactive)	74.1 µM (inactive)
O=C(O)/C(Cl)=C(\Cl)C(=O)c1ccccc1	> 100 µM (inactive)	> 100 µM (inactive)	> 100 µM (inactive)	> 100 µM (inactive)	> 100 µM (inactive)	> 100 µM (inactive)	> 100 µM (inactive)	> 100 µM (inactive)	> 100 µM (inactive)	> 100 µM (inactive)		> 100 µM (inactive)	> 100 µM (inactive)	> 100 µM (inactive)	> 100 µM (inactive)	> 100 µM (inactive)	> 100 µM (inactive)	> 100 µM (inactive)
C1=Nc2ccccc2Cn2nncc21	> 100 µM (inactive)		> 100 µM (inactive)	> 100 µM (inactive)	> 100 µM (inactive)	> 100 µM (inactive)	> 100 µM (inactive)	25.4 µM (inactive)	89.1 µM (inactive)	45.6 µM (inactive)	> 100 µM (inactive)	46.9 µM (inactive)	99.5 µM (inactive)	28.6 µM (inactive)	26 µM (inactive)	47.1 µM (inactive)	> 100 µM (inactive)	> 100 µM (inactive)
CC(C)c1cccc2sc(NC(=O)C(=O)CC(=O)c3ccc(F)cc3)nc12	> 100 µM (inactive)	59.7 µM (inactive)	> 100 µM (inactive)	> 100 µM (inactive)	> 100 µM (inactive)	> 100 µM (inactive)	> 100 µM (inactive)	> 100 µM (inactive)	> 100 µM (inactive)	> 100 µM (inactive)	> 100 µM (inactive)	> 100 µM (inactive)		> 100 µM (inactive)	> 100 µM (inactive)	> 100 µM (inactive)	> 100 µM (inactive)	> 100 µM (inactive)
CC1=C(C(=O)NCc2ccccc2)C(c2ccc(C3C(C(=O)NCc4ccccc4)=C(C)NC(C)=C3C(=O)NCc3ccccc3)cc2)C(C(=O)NCc2ccccc2)=C(C)N1	16.6 µM (inactive)	> 10 µM (inactive)	7.03 µM (inactive)	23.7 µM (inactive)	7.57 µM (inactive)	23.2 µM (inactive)	10.4 µM (inactive)	6.27 µM (inactive)	21.2 µM (inactive)	5.61 µM (inactive)	6.65 µM (inactive)		17.1 µM (inactive)	2.13 µM (inactive)	3.96 µM (inactive)	11.4 µM (inactive)		20.7 µM (inactive)
CC(Oc1ccc(OCC2CCCCC2)cc1)C(=O)N(CCO)CCO (stereo unspecified)	> 100 µM (inactive)	92.9 µM (inactive)	> 100 µM (inactive)				> 100 µM (inactive)	> 100 µM (inactive)	> 100 µM (inactive)	> 100 µM (inactive)		> 100 µM (inactive)	32.9 µM (inactive)	23.6 µM (inactive)	> 100 µM (inactive)	> 100 µM (inactive)	> 100 µM (inactive)	> 100 µM (inactive)
